# Test results from ChEMBL document CHEMBL5233255, “Natural and nature-inspired stilbenoids as antiviral agents” (Eur J Med Chem, 2020).
# Experiments:
# [1] = test system: Influenza A virus; assay: Antiviral activity against influenza A virus A/PR/8/34 (H1N1) infected in human A549 cells assessed as inhibition of RANTES production incubated for 48 hrs by ELISA; format: functional, organism-based; conditions: A549, 48 h
# [2] = Cytotoxicity against human A549 cells assessed as reduction in cell viability by Alamar blue assay; format: toxicity, cell-based
# [3] = test system: Human immunodeficiency virus 1; assay: Antiviral activity against HIV-1 infected in human C8166 cells assessed as inhibition of viral replication; format: functional, organism-based; conditions: Human immunodeficiency virus 1, C8166
# [4] = Therapeutic index, ratio of CC50 for cytotoxicity against human C8166 cells to EC50 for antiviral activity against HIV-1 infected in C8166 cells; format: toxicity, cell-based; conditions: read-out: Ratio CC50/EC50
# [5] = Cytotoxicity against human C8166 cells assessed as inhibition of cell growth by MTT assay; format: toxicity, cell-based
# [6] = Selectivity index, ratio of CC50 for cytotoxicity against MDCK cells to IC50 for influenza A virus A/Guangdong/243/72 ([…]) infected in MDCK cells; format: toxicity, cell-based; conditions: dog, read-out: Ratio CC50/IC50
# [7] = test system: Influenza A virus; assay: Antiviral activity against influenza A virus A/Guangdong/243/72 ([…]) infected in MDCK cells assessed as inhibition of virus-induced cytopathic effect; format: functional, organism-based
# [8] = test system: dengue virus type 2; assay: Antiviral activity against Dengue virus 2 New Guinea C infected in human Huh-7 cells assessed as reduction in virus induced cytopathic effect incubated for 3 days by trypan blue staining based assay; format: functional, organism-based; conditions: Huh-7, 72 h
# [9] = Selectivity index, ratio of CC50 for cytotoxicity against human Huh-7 cells to EC50 for Dengue virus 2 New Guinea C infected in human Huh-7 cells; format: toxicity, cell-based; conditions: read-out: Ratio CC50/EC50
# [10] = Cytotoxicity against human Huh-7 cells assessed as reduction in cell viability incubated for 3 days by MTT assay; format: toxicity, cell-based; conditions: time 3 day
# [11] = test system: Hepatitis C virus; assay: Antiviral activity against Hepatitis C virus genotype 2 infected in human Huh7.5 cells assessed as reduction in viral replication by RT-PCR assay; format: functional, organism-based, Hepacivirus hominis; conditions: genotype 2, Huh7.5
# [12] = test system: Hepatitis C virus; assay: Antiviral activity against Hepatitis C virus genotype 2 infected in renilla luciferase-J6/JFH1 RNA-transfected human Huh7.5 cells assessed as reduction in viral replication incubated for 72 hrs by qRT-PCR analysis; format: functional, organism-based, Hepacivirus hominis; conditions: genotype 2, Huh7.5, 72 h
# [13] = test system: Hepatitis C virus; assay: Antiviral activity against Hepatitis C virus genotype 1 infected in Bart79I RNA-transfected human Huh7.5 cells assessed as reduction in viral replication incubated for 24 to 72 hrs by RT-PCR assay; format: functional, organism-based, Hepacivirus hominis; conditions: genotype 1, Huh7.5
# [14] = Cytotoxicity against HCV RNA-transfected human Huh7.5 cells assessed as reduction in cell viability; format: toxicity, cell-based, Huh-7.5; conditions: HCV RNA-transfected Huh7.5 cells
# [15] = test system: Human immunodeficiency virus 1; assay: Antiviral activity against HIV-1 infected in HEK293T cells; format: functional, organism-based; conditions: Human immunodeficiency virus 1, HEK-293T
# [16] = Cytotoxicity against HEK293T cells; format: toxicity, cell-based, HEK-293T; conditions: human, read-out: TC50 (the source's name)
# [17] = test system: Human alphaherpesvirus 2; assay: Antiviral activity against HSV-2 333 infected in African green monkey Vero cells incubated for 3 days by plaque reduction assay; format: functional, organism-based; conditions: Human alphaherpesvirus 2, 333, Vero, 72 h
# [18] = test system: Human alphaherpesvirus 1; assay: Antiviral activity against HSV-1 15577 infected in African green monkey Vero cells incubated for 3 days by plaque reduction assay; format: functional, organism-based; conditions: Human alphaherpesvirus 1, 15577, Vero, 72 h
# [19] = test system: Human alphaherpesvirus 1; assay: Antiviral activity against HSV-1 clinical isolate infected in African green monkey Vero cells incubated for 3 days by plaque reduction assay; format: functional, organism-based; conditions: Human alphaherpesvirus 1, Vero, 72 h
# [20] = Inhibition of recombinant HIV-1 integrase catalysed strand transfer activity measured after 60 mins by electrochemiluminescent plate-based assay; parameters: species or system Human immunodeficiency virus 1
# [21] = Inhibition of HIV-1 integrase catalysed 3' processing activity by densitometric analysis; parameters: species or system Human immunodeficiency virus 1
# [22] = Cytotoxicity against human Huh7.5 cells infected with Hepatitis C virus assessed as reduction in cell viability; format: toxicity, cell-based, Huh-7.5
# [23] = test system: Hepatitis C virus; assay: Antiviral activity against Hepatitis C virus infected in human Huh7.5 cells assessed as reduction in viral replication; format: functional, organism-based, Hepacivirus hominis
compound,measurement,setting,value
O=Cc1ccc2c(c1)C(c1cc(O)cc3c1[C@H](c1cc(O)cc(O)c1)[C@@H](c1ccc(O)cc1)O3)[C@H](c1ccc(O)cc1)O2 (stereo partly drawn),EC50,[1],8.48 µM
same,CC50,[2],> 400 µM
O=S(=O)([O-])O[C@H]1[C@H](O)[C@@H](O)[C@H](Oc2cc(O)cc(/C=C\c3ccc(O)cc3)c2)O[C@@H]1CO.[Na+],EC50,[3],84.8 µg/mL
same,selectivity ratio,[4],1.17
same,CC50,[5],98.8 µg/mL
COc1cc(/C=C/c2cc(O)cc(O)c2)ccc1O,selectivity ratio,[6],8.99
same,IC50,[7],4.28 µg/mL
COc1cc(/C(C)=C/c2cc3ccccc3[nH]2)cc(OC)c1OC,EC50,[8],0.00812 µM
same,selectivity ratio,[9],209
same,CC50 at 72 h,[10],1.7 µM
CC(=O)Oc1ccc(/C=C/c2cc(OC(C)=O)cc3c2C(c2cc(OC(C)=O)cc(OC(C)=O)c2)C(c2ccc(OC(C)=O)cc2)O3)cc1 (stereo not drawn),EC50,[11],4.7 µM
same,EC50,[12],2.37 µM
same,EC50,[13],10.4 µM
same,CC50,[14],> 10 µM
O=S(=O)([O-])Oc1ccc(/C=C/c2cc(O)cc(O[C@@H]3O[C@H](CO)[C@@H](O)[C@H](O)[C@H]3O)c2)cc1.[Na+],EC50,[3],> 200 µg/mL
same,CC50,[5],> 2000 µg/mL
Oc1ccc([C@@H]2c3c(O)cc(O)cc3[C@@H]3c4c(cc(O)c5c4[C@@H]2[C@H](c2ccc(O)cc2)[C@H]5c2cc(O)cc(O)c2)O[C@H]3c2ccc(O)cc2)cc1,EC50,[1],0.57 µM
same,CC50,[2],> 1000 µM
O=C(/C=C/c1ccc(O)cc1)c1cc(O)cc(O)c1,EC50,[15],> 75 µM
Oc1ccc(-c2c(-c3cc(O)cc(O)c3)sc3ccccc23)cc1,EC50,[15],34.4 µM
same,CC50,[16],131 µM
Oc1ccc(-c2cnc(-c3cc(O)cc(O)c3)nc2)cc1,EC50,[15],> 75 µM
OC[C@H]1O[C@@H](Oc2cc(O)cc(/C=C/c3ccc(O)cc3)c2O[C@@H]2O[C@H](CO)[C@@H](O)[C@H](O)[C@H]2O)[C@H](O)[C@@H](O)[C@@H]1O,EC50,[3],176 µg/mL
same,selectivity ratio,[4],> 1.13
same,CC50,[5],> 200 µg/mL
CC(C)=CCc1c(O)cc(-c2cc3ccc(O)cc3o2)cc1O [MORACIN C],IC50,[17],2.5 µg/mL
same,IC50,[18],2.5 µg/mL
same,IC50,[19],2.5 µg/mL
Oc1ccc(-c2sc3ccccc3c2-c2cc(O)cc(O)c2)cc1,EC50,[15],45.1 µM
same,CC50,[16],118 µM
Oc1ccc(-c2c(-c3cc(O)cc(O)c3)oc3ccccc23)cc1,EC50,[15],35 µM
same,CC50,[16],84.8 µM
Oc1cc(O)cc(-c2cc3ccc(O)cc3o2)c1 [MORACIN M],IC50,[17],2.5 µg/mL
same,IC50,[18],2.5 µg/mL
same,IC50,[19],2.5 µg/mL
Oc1cc(O)cc(-c2ccc3cc(O)ccc3c2)c1,EC50,[15],> 75 µM
O=S(=O)([O-])OC[C@H]1O[C@@H](Oc2cc(O)cc(/C=C/c3ccc(O)cc3)c2)[C@H](O)[C@@H](O)[C@@H]1O.[Na+],EC50,[3],> 200 µg/mL
same,selectivity ratio,[4],< 3.73
same,CC50,[5],746 µg/mL
NC(=O)c1ncn([C@@H]2O[C@H](CO)[C@@H](O)[C@H]2O)n1 [RIBAVIRIN],IC50,[7],5.54 µg/mL
Nc1ccc(/C=C/c2ccc(N)cc2S(=O)(=O)O)c(S(=O)(=O)O)c1,IC50,[20],> 111 µM
same,IC50,[21],> 111 µM
Oc1ccc(/C=C/c2cc(O)cc3c2[C@@H](c2cc(O)cc4c2[C@H](c2cc(O)cc5c2[C@@H](c2cc(O)cc(O)c2)[C@H](c2ccc(O)cc2)O5)[C@@H](c2ccc(O)cc2)O4)[C@H](c2ccc(O)cc2)O3)cc1,CC50,[2],8.4 µM
Oc1ccc([C@@H]2c3c(O)cc(O)cc3[C@H]3c4c(cc(O)cc4[C@@H]2O)O[C@@H]3c2ccc(O)cc2)cc1,CC50,[22],> 10 µM
same,EC50,[23],5.74 µM
COc1cc(/C(C#N)=C\c2cc3ccccc3s2)cc(OC)c1OC,EC50,[8],0.00722 µM
same,selectivity ratio,[9],263
same,CC50 at 72 h,[10],1.9 µM
